Data published in PMC6010119 (Journal of Enzyme Inhibition and Medicinal Chemistry, 2017).

Columns and labels:
[1] = tested on: A549 lung cancer cells; assay: cells; details: Homo sapiens, A549, read-out: IC50 on A549
[2] = biological target: EGFR (Homo sapiens, UniProt P00533); assay type: biochemical; details: test concentration not given; conclusion says EGFR in A549 cancer cells
Sequence of EGFR (P00533 25-1210): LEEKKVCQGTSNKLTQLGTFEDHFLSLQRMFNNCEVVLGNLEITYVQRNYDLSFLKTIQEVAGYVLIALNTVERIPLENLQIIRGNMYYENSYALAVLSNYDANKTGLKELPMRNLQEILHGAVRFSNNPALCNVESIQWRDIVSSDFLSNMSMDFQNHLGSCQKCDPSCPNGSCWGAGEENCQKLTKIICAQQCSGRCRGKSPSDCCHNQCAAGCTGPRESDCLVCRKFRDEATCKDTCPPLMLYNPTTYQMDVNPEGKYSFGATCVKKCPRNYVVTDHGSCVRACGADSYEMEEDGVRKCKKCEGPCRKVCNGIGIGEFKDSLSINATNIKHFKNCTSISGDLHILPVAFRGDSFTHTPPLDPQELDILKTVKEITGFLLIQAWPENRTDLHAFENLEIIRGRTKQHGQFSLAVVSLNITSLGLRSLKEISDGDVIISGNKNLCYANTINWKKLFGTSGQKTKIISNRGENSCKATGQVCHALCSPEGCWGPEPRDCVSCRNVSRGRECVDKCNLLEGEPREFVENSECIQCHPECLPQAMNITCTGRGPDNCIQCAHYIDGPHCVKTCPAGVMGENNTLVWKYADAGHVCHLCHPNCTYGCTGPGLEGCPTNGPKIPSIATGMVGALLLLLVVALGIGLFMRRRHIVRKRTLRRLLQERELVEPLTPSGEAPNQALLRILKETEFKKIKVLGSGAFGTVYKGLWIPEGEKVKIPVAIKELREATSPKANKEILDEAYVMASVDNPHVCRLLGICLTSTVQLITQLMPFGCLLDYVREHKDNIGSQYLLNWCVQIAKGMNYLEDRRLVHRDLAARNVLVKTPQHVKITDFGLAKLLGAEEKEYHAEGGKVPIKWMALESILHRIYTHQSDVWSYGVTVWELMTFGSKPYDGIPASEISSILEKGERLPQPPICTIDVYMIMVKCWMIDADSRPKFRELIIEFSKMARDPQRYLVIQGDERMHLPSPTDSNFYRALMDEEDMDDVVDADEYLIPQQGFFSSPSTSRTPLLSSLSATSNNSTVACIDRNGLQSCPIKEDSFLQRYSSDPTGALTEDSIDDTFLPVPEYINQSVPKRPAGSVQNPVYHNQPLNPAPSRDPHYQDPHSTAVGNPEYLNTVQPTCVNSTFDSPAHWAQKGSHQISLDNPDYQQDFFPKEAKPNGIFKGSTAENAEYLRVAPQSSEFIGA

Row | Compound | IC50 [1] [nM] | % inhibition of EGFR [2] [%]
1 | Cc1ccc(NC(=O)CSc2nc3cc4ccccc4cc3c(=O)n2-c2ccc(S(N)(=O)=O)cc2)cc1 [Compound 8, 2-(4-Oxo-3-(4-sulfamoylphenyl)-3,4-dihydrobenzo[g]quinazolin-2-ylthio)-N-p-tolylacetamide] | 220 ± 120 | 90.21
2 | NS(=O)(=O)c1ccc(-n2c(SCC(=O)Nc3ccccc3)nc3cc4ccccc4cc3c2=O)cc1 [Compound 5, 2-(4-Oxo-3-(4-sulfamoylphenyl)-3,4-dihydrobenzo[g]quinazolin-2-ylthio)-N-phenylacetamide] | 1017 ± 10 | 55.58
3 | Cc1cccc(NC(=O)CSc2nc3cc4ccccc4cc3c(=O)n2-c2ccc(S(N)(=O)=O)cc2)c1 [Compound 7, 2-(4-Oxo-3-(4-sulfamoylphenyl)-3,4-dihydrobenzo[g]quinazolin-2-ylthio)-N-m-tolylacetamide] | 1271 ± 2 | 66.85
4 | COc1cc(NC(=O)CSc2nc3cc4ccccc4cc3c(=O)n2-c2ccc(S(N)(=O)=O)cc2)cc(OC)c1OC [Compound 15, 2-(4-Oxo-3-(4-sulfamoylphenyl)-3,4-dihydrobenzo[g]quinazolin-2-ylthio)-N-(3,4,5-trimethoxyphenyl)acetamide] | 545 ± 3 | 58.04
5 | Cc1ccccc1NC(=O)CSc1nc2cc3ccccc3cc2c(=O)n1-c1ccc(S(N)(=O)=O)cc1 [Compound 6, 2-(4-Oxo-3-(4-sulfamoylphenyl)-3,4-dihydrobenzo[g]quinazolin-2-ylthio)-N-o-tolylacetamide] | 105 ± 12 | 84.31
6 | C#Cc1cccc(Nc2ncnc3cc(OCCOC)c(OCCOC)cc23)c1 [Erlotinib, reference compound] | 727 ± 8 | –
